Legend:
[1] = target: T1, α-glucosidase from Saccharomyces cerevisiae (Saccharomyces cerevisiae, UniProt P53341); assay: biochemical; type: biochemical; conditions: α-glucosidase 0.1 U/mL, PNPG 0.25 mM, pH 6.8, 37 °C; read-out: α-Glucosidase inhibitory activity IC50
T1 construct: purchased Sigma-Aldrich
Experimental: (§1) α-Glucosidase from Saccharomyces cerevisiae (EC 3.2.1.20) was purchased from Sigma-Aldrich. p-Nitrophenyl-α-D-[…] (PNPG) was obtained from Abcam. Other reagents were commercially available.
After the addition of PNPG (0.25 mM), the change in absorbance was measured at 405 nm. […] All experiments were performed four times.

α-glucosidase [2] = target: T2, α-glucosidase (Saccharomyces cerevisiae, UniProt P53341); assay: α-glucosidase inhibition kinetics (enzyme kinetics and Lineweaver-Burk substrate kinetics); type: biochemical; conditions: for inhibition type (substrate kinetics): Lineweaver-Burk plots; for Ki / Kis / Vmax: inhibition kinetics constant; for reversibility of inhibition (enzyme kinetics): plots of remaining enzyme activity versus enzyme concentration
T2 construct: purchased Sigma-Aldrich
T2 sequence (P53341 whole entry): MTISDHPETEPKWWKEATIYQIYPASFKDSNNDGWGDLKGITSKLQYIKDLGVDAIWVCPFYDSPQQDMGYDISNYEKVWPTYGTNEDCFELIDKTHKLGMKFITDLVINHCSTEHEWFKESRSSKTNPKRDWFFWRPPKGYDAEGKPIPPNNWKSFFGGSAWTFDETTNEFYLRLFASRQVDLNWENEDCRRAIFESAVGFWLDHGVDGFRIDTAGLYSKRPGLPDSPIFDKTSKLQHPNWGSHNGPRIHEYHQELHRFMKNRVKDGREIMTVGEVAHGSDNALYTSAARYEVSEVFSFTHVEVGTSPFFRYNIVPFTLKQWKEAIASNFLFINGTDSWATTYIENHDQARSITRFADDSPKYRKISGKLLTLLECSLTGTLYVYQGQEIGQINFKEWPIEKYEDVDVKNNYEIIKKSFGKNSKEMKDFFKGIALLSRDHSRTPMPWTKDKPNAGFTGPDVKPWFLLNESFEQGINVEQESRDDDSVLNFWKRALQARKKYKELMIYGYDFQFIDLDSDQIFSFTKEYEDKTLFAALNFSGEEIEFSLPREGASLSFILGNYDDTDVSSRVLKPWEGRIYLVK
Excerpt: Compounds 9, 11, 13, 18, and 19 with different α-glucosidase inhibitory activity were selected as representative compounds to reveal the inhibition mechanism of indolo[1,2-b]isoquinoline derivatives (1–21) on α-glucosidase by the implementation of an inhibition kinetics study. […] For substrate kinetics (Figure 5b,d,f,h,j), the Lineweaver-Burk plots of remaining enzyme activity versus […] treated with compounds 9, 11, 13, 18, and 19 intersected at one point in the second quadrant, respectively. The inhibition kinetics study was an effective method by which to understand the inhibition mechanism of the inhibitor against the target protein. In a substrate kinetics study, different inhibition mechanisms of inhibitors manifested as different intersection positions of Lineweaver-Burk plots. […] Moreover, compounds 9, 11, 13, 18, and 19 bind with both free enzyme and enzyme-substrate complexes to inhibit α-glucosidase. The inhibition kinetics constants of compounds 9, 11, 13, 18, and 19 were obtained and are listed in Table 2, including Ki, Kis, Km, and Vmax values, which might be helpful to understand the inhibition mechanism.
as §1
The kinetics of enzyme inhibition for compounds 9, 11, 13, 18, and 19 were obtained by plotting the enzymatic reaction rate versus enzyme concentration with or without compounds 9, 11, 13, 18, and 19, and the kinetics of substrate inhibition were measured using Lineweaver Burk plots of the enzymatic reaction rate versus substrate concentration with or without compounds 9, 11, 13, 18, and 19 [37, 38, 39, 40].

α-glucosidase [3] = target: T2, α-glucosidase; assay: 3D fluorescence spectra of α-glucosidase with compounds; type: binding; conditions: α-glucosidase 5 μM
Excerpt: The 3D fluorescence spectra of α-glucosidase with compounds 9, 11, 13, 18, and 19 was investigated to analyze the effect of compounds on the structure of α-glucosidase, respectively. Two important characteristic peaks appeared in the 3D fluorescence spectra of α-glucosidase (Figure 6a,c,e,g,i), including Peak 1 ([…]), corresponding to the main chain structure of the polypeptide, and Peak 2 ([…]), corresponding to tyrosine and tryptophan residues. […] (Figure 6b,d,f,h,j). Previously, 3D fluorescence spectra have been used to determine protein conformation changes.
as §1
Compounds 9, 11, 13, 18, and 19 were added to α-glucosidase (5 μM) in 100 μL of PBS and incubated for 5 min, then the 3D fluorescence spectra of the mixture were recorded [32]^. The excitation and emission wavelengths were 200–500 nm and the slit width was 2.5 nm. All data were imported into Matlab for processing.

α-glucosidase [4] = target: T2, α-glucosidase; assay: CD spectra, secondary structure contents of α-glucosidase; type: binding; conditions: for effect on CD band intensity of α-glucosidase: 190~280 nm
Excerpt: CD spectra were also monitored to study the effect of compounds 9, 11, 13, 18, and 19 on the conformational changes of α-glucosidase. As shown in Figure 7a–e, α-glucosidase presented two negative CD bands in the region of 190~280 nm, which was owed to the electronic transitions of n→π* of α-helical bonds. […] While treatment of compounds 9, 13, 18, and 19 led to an increase of α-helix and a reduction of β-sheet, β-turn, and random coils, respectively (Table 3). CD spectra have been an important method by which to study protein structural changes and secondary structural content. Previous research has shown that the interaction of an inhibitor with α-glucosidase caused the partial folding and loosening of the α-glucosidase structure.
as §1
Compounds 9, 11, 13, 18, and 19 with different concentrations were added into α-glucosidase solution (31 μM) and incubated for 5 min, respectively, then the CD spectra of the mixture were recorded. CDNN was used to analyze the ratio of protein secondary conformations.

hepatocytes LO2 cells = assay: In vitro cytotoxicity, MTT method; type: cell-based; conditions: 24 h, up to a concentration of 32 μM
Experimental: The in vitro cytotoxicity of compounds 9, 11, 13, 18, and 19 against hepatocytes LO2 cells was detected using the MTT method.
The in vitro cytotoxicity of compound 11 against hepatocytes LO2 cells was assayed using the MTT method. LO2 cells were cultured in DMEM containing 10% FBS, 100 IU/mL penicillin, and 100 IU/mL streptomycin at 37 °C under 5% CO2. An amount of 100 μL of LO2 cells was seeded into a 96-well plate (5000 per well) for 24 h, and was then treated with compounds 9, 11, 13, 18, and 19 for 24 h, respectively. Then, MTT solution was added into each well and incubated for 4 h. An amount of […] of DMSO was used to dissolve the obtained crystallization. Then, this absorbance was determined at 490 nm. Each sample was performed in triplicate.

[5] = molar ratio [α-Glu]:[Comp.] 1:1
[6] = molar ratio [α-Glu]:[Comp.] 1:2
[7] = molar ratio [α-Glu]:[Comp.] 1:3

T1 sequence (P53341 whole entry): as above

Row | SMILES | IC50 [1] [µM] | inhibition type (substrate kinetics) (α-glucosidase [2]) | Ki (α-glucosidase [2]) [µM] | Kis (α-glucosidase [2]) [µM] | Vmax (α-glucosidase [2]) [µM/min/mg] | reversibility of inhibition (enzyme kinetics) (α-glucosidase [2]) | effect on fluorescence intensity of Peak 1 and Peak 2 of α-glucosidase (α-glucosidase [3]) | effect on CD band intensity of α-glucosidase (α-glucosidase [4]) | Rndm Coil (α-glucosidase [4]; [5]) [%] | α-Helix (α-glucosidase [4]; [5]) [%] | β-Sheet (α-glucosidase [4]; [5]) [%] | β-Turn (α-glucosidase [4]; [5]) [%] | Rndm Coil (α-glucosidase [4]; [6]) [%] | α-Helix (α-glucosidase [4]; [6]) [%] | β-Sheet (α-glucosidase [4]; [6]) [%] | β-Turn (α-glucosidase [4]; [6]) [%] | Rndm Coil (α-glucosidase [4]; [7]) [%] | α-Helix (α-glucosidase [4]; [7]) [%] | β-Sheet (α-glucosidase [4]; [7]) [%] | β-Turn (α-glucosidase [4]; [7]) [%] | other results
1 | O=C1c2ccc(Cl)cc2-n2c1c(-c1ccccc1)c1ccccc1c2=O [Compound 15] | 9.25 ± 0.41 | – | – | – | – | – | – | – | – | – | – | – | – | – | – | – | – | – | – | – | –
2 | CN(C)c1ccc(-c2c3n(c(=O)c4ccccc24)-c2ccccc2C3=O)cc1 [Compound 9] | 40.9 ± 0.69 | mixed-type inhibition | 30.5 | 96.19 | 0.12 | reversible | decrease the fluorescence intensity | decrease in CD band intensity | 35.10 | 10.80 | 35.60 | 19.30 | 34.60 | 13.00 | 31.90 | 19.30 | 33.40 | 13.10 | 31.70 | 19.10 | effect on cell viability (hepatocytes LO2 cells): no significant effect on cell viability
3 | Cc1ccc2c(c1)-n1c(c(-c3ccccc3)c3cc(C)ccc3c1=O)C2=O [Compound 19] | 41.2 ± 0.76 | mixed-type inhibition | 8.38 | 42.30 | 0.05 | reversible | decrease the fluorescence intensity | decrease in CD band intensity | 34.60 | 12.90 | 31.80 | 19.40 | 34.70 | 11.50 | 34.20 | 19.30 | 34.90 | 12.80 | 34.40 | 19.30 | effect on cell viability (hepatocytes LO2 cells): no significant effect on cell viability
4 | Cc1ccc2c(c1)-n1c(c(-c3ccccc3)c3ccccc3c1=O)C2=O [Compound 14] | 17 ± 0.37 | – | – | – | – | – | – | – | – | – | – | – | – | – | – | – | – | – | – | – | –
5 | O=C1c2ccccc2-n2c1c(-c1ccccc1)c1ccc(F)cc1c2=O [Compound 18] | 7.97 ± 0.31 | mixed-type inhibition | 4.62 | 12.34 | 0.08 | reversible | decrease the fluorescence intensity | decrease in CD band intensity | 35.00 | 11.10 | 35.30 | 19.40 | 35.00 | 11.20 | 35.00 | 19.30 | 34.70 | 12.80 | 35.00 | 19.30 | effect on cell viability (hepatocytes LO2 cells): no significant effect on cell viability
6 | O=C1c2ccccc2-n2c1c(-c1ccc(Cl)cc1)c1ccccc1c2=O [Compound 7] | 14.7 ± 0.37 | – | – | – | – | – | – | – | – | – | – | – | – | – | – | – | – | – | – | – | –
7 | Cc1ccc2c(=O)n3c(c(-c4ccccc4)c2c1)C(=O)c1ccccc1-3 [Compound 17] | 7.95 ± 0.43 | – | – | – | – | – | – | – | – | – | – | – | – | – | – | – | – | – | – | – | –
8 | CC(C)(C)c1ccc(-c2c3n(c(=O)c4ccccc24)-c2ccccc2C3=O)cc1 [Compound 6] | 5.76 ± 0.26 | – | – | – | – | – | – | – | – | – | – | – | – | – | – | – | – | – | – | – | –
9 | O=C1c2ccccc2-n2c1c(-c1ccccc1Cl)c1ccccc1c2=O [Compound 10] | 12.2 ± 0.46 | – | – | – | – | – | – | – | – | – | – | – | – | – | – | – | – | – | – | – | –
10 | COc1ccc(-c2c3n(c(=O)c4ccccc24)-c2ccccc2C3=O)cc1 [Compound 8] | 15.1 ± 0.44 | – | – | – | – | – | – | – | – | – | – | – | – | – | – | – | – | – | – | – | –
